Tests used:
Format in all cases: in vivo
transplanted rice = assay: Test Example 1: preemergent weed treatment in the submerged state, effect on crop; a: transplanted rice; settings: treatment dosage 252 g/ha
How it was run: (§1)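 Submerged pre-emergence treatment, water-surface application of compound emulsion at g/ha dosages; 4 cm flooded alluvial soil, weeds sown and 2.5-leaf rice transplanted same day. Rated after 3 weeks, greenhouse.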

birds-eye speedwell [1] = assay: Test Example 4: weedkilling efficacy by foliar treatment; p: birds-eye speedwell; settings: treatment dosage 315 g/ha
Method: (§2) Testing of Weedkilling Efficacy by Foliar Treatment
(§3) Sterilized diluvial soil was introduced into 21 cm long, 13 cm wide, 7 cm deep plastic boxes, and seeds of crabgrass, green foxtail, barnyard grass, wild oat, black-grass, Italian ryegrass, common wind-grass, Indian mallow, redroot pigweed, fig-leafed goosefoot, chickweed, catchweed, birds-eye speedwell, corn, soybean, rice, wheat, beet and rapeseed were each spot-sown, and covered with about 1.5 cm of soil, then the plants were grown in a greenhouse at 25 to 30° C.
(§4) After they had grown for 14 days, emulsions of compounds of the present invention prepared according to compounding example 2 were diluted with water to give the specified dosages, and applied uniformly onto the stem and leaf parts with a small sprayer. 3 weeks after the pesticide treatment the effect on each type of plant was investigated on the basis of the assessment criteria of test example 1.
(§5) A: barnyard grass, B: bulrush, C: oval-leafed pondweed, D: crabgrass, E: green foxtail, F: barnyard grass, G: wild oat, H: black-grass, I: Italian ryegrass, J: common wind-grass, K: Indian mallow, L: redroot pigweed, M: fig-leafed goosefoot, N: chickweed, O: catchweed, p: birds-eye speedwell, a: transplanted rice, b: directly sown rice, c: corn, d: soybean, e: wheat, f: beet, g: rapeseed
(§6) Further, pesticide dosage (g/ha) indicates the concentration regulated such that treatment was with only the stated number of grams (g), when calculated per hectare (ha).

wheat = assay: Test Example 4: foliar treatment, effect on crop; e: wheat; settings: treatment dosage 315 g/ha
Method: as §2, §3, §4, §5, §6

directly sown rice [2] = assay: Test Example 4: foliar treatment, effect on crop; b: directly sown rice; settings: treatment dosage 315 g/ha
Method: as §2, §3, §4, §5, §6

redroot pigweed [3] = assay: Test Example 4: weedkilling efficacy by foliar treatment; L: redroot pigweed; settings: treatment dosage 315 g/ha
Method: as §2, §3, §4, §5, §6

bulrush [4] = assay: Test Example 2: weedkilling efficacy, growth period weed treatment in the submerged state; B: bulrush; settings: treatment dosage 252 g/ha
How it was run: (§7)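 Seedlings at 1-2 leaves in 4 cm-deep submerged alluvial soil received emulsion formulations on the water surface, dosed per hectare; effects were judged 3 weeks on.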

Indian mallow [5] = assay: Test Example 3: weedkilling efficacy through soil treatment; K: Indian mallow; settings: treatment dosage 315 g/ha
How it was run: (§8)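 Crop and weed responses were judged three weeks after a uniform surface spray of the water-diluted emulsion at the given g/ha rate. Seeds sat beneath about 1.5 cm of sterilized diluvial soil, and boxes stood in a greenhouse at 25 to 30° C.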

chickweed [6] = assay: Test Example 3: weedkilling efficacy through soil treatment; N: chickweed; settings: treatment dosage 315 g/ha
How it was run: as §8

black-grass [7] = assay: Test Example 4: weedkilling efficacy by foliar treatment; H: black-grass; settings: treatment dosage 315 g/ha
Method: as §2, §3, §4, §5, §6

chickweed [8] = assay: Test Example 4: weedkilling efficacy by foliar treatment; N: chickweed; settings: treatment dosage 315 g/ha
Method: as §2, §3, §4, §5, §6

green foxtail [9] = assay: Test Example 4: weedkilling efficacy by foliar treatment; E: green foxtail; settings: treatment dosage 315 g/ha
Method: as §2, §3, §4, §5, §6

fig-leafed goosefoot [10] = assay: Test Example 4: weedkilling efficacy by foliar treatment; M: fig-leafed goosefoot; settings: treatment dosage 315 g/ha
Method: as §2, §3, §4, §5, §6

black-grass [11] = assay: Test Example 3: weedkilling efficacy through soil treatment; H: black-grass; settings: treatment dosage 315 g/ha
How it was run: as §8

corn [12] = assay: Test Example 3: soil treatment, effect on crop; c: corn; settings: treatment dosage 315 g/ha
How it was run: as §8

oval-leafed pondweed [13] = assay: Test Example 2: weedkilling efficacy, growth period weed treatment in the submerged state; C: oval-leafed pondweed; settings: treatment dosage 252 g/ha
How it was run: as §7

birds-eye speedwell [14] = assay: Test Example 3: weedkilling efficacy through soil treatment; p: birds-eye speedwell; settings: treatment dosage 315 g/ha
How it was run: as §8

barnyard grass [15] = assay: Test Example 2: weedkilling efficacy, growth period weed treatment in the submerged state; A: barnyard grass; settings: treatment dosage 252 g/ha
How it was run: as §7

Italian ryegrass [16] = assay: Test Example 3: weedkilling efficacy through soil treatment; I: Italian ryegrass; settings: treatment dosage 315 g/ha
How it was run: as §8

corn [17] = assay: Test Example 4: foliar treatment, effect on crop; c: corn; settings: treatment dosage 315 g/ha
Method: as §2, §3, §4, §5, §6

catchweed = assay: Test Example 4: weedkilling efficacy by foliar treatment; O: catchweed; settings: treatment dosage 315 g/ha
Method: as §2, §3, §4, §5, §6

Italian ryegrass [18] = assay: Test Example 4: weedkilling efficacy by foliar treatment; I: Italian ryegrass; settings: treatment dosage 315 g/ha
Method: as §2, §3, §4, §5, §6

crabgrass [19] = assay: Test Example 3: weedkilling efficacy through soil treatment; D: crabgrass; settings: treatment dosage 315 g/ha
How it was run: as §8

soybean [20] = assay: Test Example 4: foliar treatment, effect on crop; d: soybean; settings: treatment dosage 315 g/ha
Method: as §2, §3, §4, §5, §6

bulrush [21] = assay: Test Example 1: weedkilling efficacy, preemergent weed treatment in the submerged state; B: bulrush; settings: treatment dosage 252 g/ha
How it was run: as §1

oval-leafed pondweed [22] = assay: Test Example 1: weedkilling efficacy, preemergent weed treatment in the submerged state; C: oval-leafed pondweed; settings: treatment dosage 252 g/ha
How it was run: as §1

Indian mallow [23] = assay: Test Example 4: weedkilling efficacy by foliar treatment; K: Indian mallow; settings: treatment dosage 315 g/ha
Method: as §2, §3, §4, §5, §6

soybean [24] = assay: Test Example 3: soil treatment, effect on crop; d: soybean; settings: treatment dosage 315 g/ha
How it was run: as §8

green foxtail [25] = assay: Test Example 3: weedkilling efficacy through soil treatment; E: green foxtail; settings: treatment dosage 315 g/ha
How it was run: as §8

crabgrass [26] = assay: Test Example 4: weedkilling efficacy by foliar treatment; D: crabgrass; settings: treatment dosage 315 g/ha
Method: as §2, §3, §4, §5, §6

redroot pigweed [27] = assay: Test Example 3: weedkilling efficacy through soil treatment; L: redroot pigweed; settings: treatment dosage 315 g/ha
How it was run: as §8

beet [28] = assay: Test Example 4: foliar treatment, effect on crop; f: beet; settings: treatment dosage 315 g/ha
Method: as §2, §3, §4, §5, §6

directly sown rice [29] = assay: Test Example 3: soil treatment, effect on crop; b: directly sown rice; settings: treatment dosage 315 g/ha
How it was run: as §8

barnyard grass [30] = assay: Test Example 1: weedkilling efficacy, preemergent weed treatment in the submerged state; A: barnyard grass; settings: treatment dosage 252 g/ha
How it was run: as §1

fig-leafed goosefoot [31] = assay: Test Example 3: weedkilling efficacy through soil treatment; M: fig-leafed goosefoot; settings: treatment dosage 315 g/ha
How it was run: as §8

beet [32] = assay: Test Example 3: soil treatment, effect on crop; f: beet; settings: treatment dosage 315 g/ha
How it was run: as §8

SMILES: CC1=C(c2cccs2)C(=O)N(C(C)(C)C(=O)Nc2cccc(Cl)n2)CO1 [B-2-01]
- a (transplanted rice) effect on crop grade (transplanted rice): 2 (weed kill ratio 20% or more, less than 40%)
- P (birds-eye speedwell) weedkilling efficacy grade (birds-eye speedwell [1]): 0 (weed kill ratio 5% or less (practically no effect))
- e (wheat) effect on crop grade (wheat): 1 (weed kill ratio 5% or more, less than 20%)
- b (directly sown rice) effect on crop grade (directly sown rice [2]): 5 (weed kill ratio 90% or more, (practically complete withering))
- L (redroot pigweed) weedkilling efficacy grade (redroot pigweed [3]): 5 (weed kill ratio 90% or more, (practically complete withering))
- B (bulrush) weedkilling efficacy grade (bulrush [4]): 5 (weed kill ratio 90% or more, (practically complete withering))
- K (Indian mallow) weedkilling efficacy grade (Indian mallow [5]): 3 (weed kill ratio 40% or more, less than 70%)
- N (chickweed) weedkilling efficacy grade (chickweed [6]): 3 (weed kill ratio 40% or more, less than 70%)
- H (black-grass) weedkilling efficacy grade (black-grass [7]): 5 (weed kill ratio 90% or more, (practically complete withering))
- N (chickweed) weedkilling efficacy grade (chickweed [8]): 4 (weed kill ratio 70% or more, less than 90%)
- E (green foxtail) weedkilling efficacy grade (green foxtail [9]): 5 (weed kill ratio 90% or more, (practically complete withering))
- M (fig-leafed goosefoot) weedkilling efficacy grade (fig-leafed goosefoot [10]): 4 (weed kill ratio 70% or more, less than 90%)
- H (black-grass) weedkilling efficacy grade (black-grass [11]): 5 (weed kill ratio 90% or more, (practically complete withering))
- c (corn) effect on crop grade (corn [12]): 0 (weed kill ratio 5% or less (practically no effect))
- C (oval-leafed pondweed) weedkilling efficacy grade (oval-leafed pondweed [13]): 5 (weed kill ratio 90% or more, (practically complete withering))
- P (birds-eye speedwell) weedkilling efficacy grade (birds-eye speedwell [14]): 5 (weed kill ratio 90% or more, (practically complete withering))
- A (barnyard grass) weedkilling efficacy grade (barnyard grass [15]): 5 (weed kill ratio 90% or more, (practically complete withering))
- I (Italian ryegrass) weedkilling efficacy grade (Italian ryegrass [16]): 5 (weed kill ratio 90% or more, (practically complete withering))
- c (corn) effect on crop grade (corn [17]): 0 (weed kill ratio 5% or less (practically no effect))
- O (catchweed) weedkilling efficacy grade (catchweed): 4 (weed kill ratio 70% or more, less than 90%)
- I (Italian ryegrass) weedkilling efficacy grade (Italian ryegrass [18]): 5 (weed kill ratio 90% or more, (practically complete withering))
- D (crabgrass) weedkilling efficacy grade (crabgrass [19]): 5 (weed kill ratio 90% or more, (practically complete withering))
- d (soybean) effect on crop grade (soybean [20]): 5 (weed kill ratio 90% or more, (practically complete withering))
- B (bulrush) weedkilling efficacy grade (bulrush [21]): 5 (weed kill ratio 90% or more, (practically complete withering))
- C (oval-leafed pondweed) weedkilling efficacy grade (oval-leafed pondweed [22]): 5 (weed kill ratio 90% or more, (practically complete withering))
- K (Indian mallow) weedkilling efficacy grade (Indian mallow [23]): 3 (weed kill ratio 40% or more, less than 70%)
- d (soybean) effect on crop grade (soybean [24]): 0 (weed kill ratio 5% or less (practically no effect))
- E (green foxtail) weedkilling efficacy grade (green foxtail [25]): 5 (weed kill ratio 90% or more, (practically complete withering))
- D (crabgrass) weedkilling efficacy grade (crabgrass [26]): 5 (weed kill ratio 90% or more, (practically complete withering))
- L (redroot pigweed) weedkilling efficacy grade (redroot pigweed [27]): 4 (weed kill ratio 70% or more, less than 90%)
- f (beet) effect on crop grade (beet [28]): 4 (weed kill ratio 70% or more, less than 90%)
- b (directly sown rice) effect on crop grade (directly sown rice [29]): 5 (weed kill ratio 90% or more, (practically complete withering))
- A (barnyard grass) weedkilling efficacy grade (barnyard grass [30]): 5 (weed kill ratio 90% or more, (practically complete withering))
- M (fig-leafed goosefoot) weedkilling efficacy grade (fig-leafed goosefoot [31]): 4 (weed kill ratio 70% or more, less than 90%)
- f (beet) effect on crop grade (beet [32]): 4 (weed kill ratio 70% or more, less than 90%)
